Results reported in patent US8192962B2, “Processes for detecting toxic substances” (Daikin Industries, Ltd., priority 2001, dated 2012).

System: Metabolism protein genes
Assay: DNA chip mRNA expression in yeast, metabolism protein genes (Table 7)
Assay type: cell-based, Saccharomyces cerevisiae S288C
Experimental: Yeast (Saccharomyces cerevisiae S288C (α SUC2mal mel gap2 CUP1)) were incubated at 25° C. on YPD medium (yeast extract 1%, polypepton 2%, glucose 2%). One of toxic chemical substances was added to the cells at logarithmic growth phase, and the cells were further incubated for two hours. Cells were cultured without any chemical substance in the same condition, and were used as control. Concentrations of the chemical substances were defined to inhibit the growth of the yeast but not lead to death.
After completion of the incubation, the culture was centrifuged to collect the cells. To the cells, sodium acetate buffer (50 mM sodium acetate, 10 mM EDTA, 1% SDS) was added, and the mixture was shaken at 65° C. for five minutes, followed by returning to room temperature, and obtaining the supernatant, of which the procedures were repeated two times. To the supernatant, ½ amount of a solution of phenol/chloroform was added, and the mixture was centrifuged to give a supernatant, which was added with an equal amount of chloroform, and the mixture was centrifuged to give a supernatant. To the supernatant, an equal amount of isopropanol containing 0.3 M sodium acetate was added, and the mixture was allowed to stand at room temperature for 30 minutes, after which the mixture was centrifuged to give a sediment of the whole RNAs. Seventy % ethanol was added to the sediment, and the mixture was again centrifuged to give a sediment, which was then dried and dissolved in water. mRNA was isolated from the whole RNAs as followings. In view of the fact that a poly A chain is attached to the 3′ terminus of mRNA, a polynucleotide having a poly T structure which was immobilized on the surface of latex beads was used to trap the mRNA, and then the mRNA was washed and eluted with spine column (Oligotex-dT30<Super>mRNA Purification Kit, Takara). Reverse transcription of the mRNA was conducted with a reverse transcriptase (Super Script II Reverse Transcriptase; catalogue No. 18064-014, GibcoBRL) using fluorescence-labeled nucleotides to give cDNAs that were introduced with Cy3-dUTP or Cy5-dUTP during the reverse transcription.
The labeled cDNAs were dissolved in TE buffer (10mM Tris-HCl/1 mM EDTA, pH8.0), and the solution was dropped on the DNA chip containing the whole genes of yeast (DNA Chip Research Inc. Japan) so that the cDNAs were hybridized on the DNA chip at 65° C. for over 12 hours. The fluoresces intensity of the DNA chip was read with a scanner, and the ratio relative to the fluorescence intensity resulting from the absence of chemical substance was estimated as the following, which is shown in Tables 1 to 9: […]

## Cl[C@H]1[C@H](Cl)[C@@H](Cl)[C@@H](Cl)[C@H](Cl)[C@H]1Cl [(7), γ-hexachlorocyclohexane]
Yeast gene YAL012W
  The level of expressed mRNA in the presence of chemical substance/The level of expressed mRNA in the absence of chemical substance: 0.6
Yeast gene YAL038W
  The level of expressed mRNA in the presence of chemical substance/The level of expressed mRNA in the absence of chemical substance: 0.9
Yeast gene YBR003W
  level of expressed mRNA in the presence/in the absence of chemical substance: 1.1
Yeast gene YBR011C
  level of expressed mRNA in the presence/in the absence of chemical substance: 1.1
Yeast gene YBR020W
  level of expressed mRNA in the presence/in the absence of chemical substance: 0.7
Yeast gene YBR023C
  The level of expressed mRNA in the presence of chemical substance/The level of expressed mRNA in the absence of chemical substance: 0.7
Yeast gene YBR029C
  The level of expressed mRNA in the presence of chemical substance/The level of expressed mRNA in the absence of chemical substance: 0.4
Yeast gene YBR183W
  The level of expressed mRNA in the presence of chemical substance/The level of expressed mRNA in the absence of chemical substance: 1.7
Yeast gene YBR222C
  The level of expressed mRNA in the presence of chemical substance/The level of expressed mRNA in the absence of chemical substance: 1.0
Yeast gene YBR256C
  The level of expressed mRNA in the presence of chemical substance/The level of expressed mRNA in the absence of chemical substance: 2.1
Yeast gene YCL009C
  The level of expressed mRNA in the presence of chemical substance/The level of expressed mRNA in the absence of chemical substance: 1.3
Yeast gene YCL064C
  The level of expressed mRNA in the presence of chemical substance/The level of expressed mRNA in the absence of chemical substance: 13.4
Yeast gene YCR010C
  level of expressed mRNA in the presence/in the absence of chemical substance: 1.3
Yeast gene YCR034W
  level of expressed mRNA in the presence/in the absence of chemical substance: 0.3
Yeast gene YCR048W
  The level of expressed mRNA in the presence of chemical substance/The level of expressed mRNA in the absence of chemical substance: 0.9
Yeast gene YCR098C
  The level of expressed mRNA in the presence of chemical substance/The level of expressed mRNA in the absence of chemical substance: 1.2
Yeast gene YDR019C
  The level of expressed mRNA in the presence of chemical substance/The level of expressed mRNA in the absence of chemical substance: 1.4
Yeast gene YDR050C
  level of expressed mRNA in the presence/in the absence of chemical substance: 1.5
Yeast gene YDR073W
  level of expressed mRNA in the presence/in the absence of chemical substance: 1.2
Yeast gene YDR123C
  level of expressed mRNA in the presence/in the absence of chemical substance: 0.9
Yeast gene YDR178W
  level of expressed mRNA in the presence/in the absence of chemical substance: 0.6
Yeast gene YDR277C
  level of expressed mRNA in the presence/in the absence of chemical substance: 1.2
Yeast gene YDR284C
  level of expressed mRNA in the presence/in the absence of chemical substance: 1.4
Yeast gene YDR345C
  level of expressed mRNA in the presence/in the absence of chemical substance: 1.1
Yeast gene YDR380W
  The level of expressed mRNA in the presence of chemical substance/The level of expressed mRNA in the absence of chemical substance: 0.5
Yeast gene YDR400W
  level of expressed mRNA in the presence/in the absence of chemical substance: 0.6
Yeast gene YDR408C
  level of expressed mRNA in the presence/in the absence of chemical substance: 0.8
Yeast gene YDR483W
  level of expressed mRNA in the presence/in the absence of chemical substance: 0.8
Yeast gene YDR497C
  The level of expressed mRNA in the presence of chemical substance/The level of expressed mRNA in the absence of chemical substance: 0.5
Yeast gene YDR502C
  The level of expressed mRNA in the presence of chemical substance/The level of expressed mRNA in the absence of chemical substance: 0.9
Yeast gene YDR516C
  The level of expressed mRNA in the presence of chemical substance/The level of expressed mRNA in the absence of chemical substance: 3.9
Yeast gene YEL063C
  level of expressed mRNA in the presence/in the absence of chemical substance: 0.7
Yeast gene YER015W
  level of expressed mRNA in the presence/in the absence of chemical substance: 1.2
Yeast gene YER026C
  The level of expressed mRNA in the presence of chemical substance/The level of expressed mRNA in the absence of chemical substance: 1.6
Yeast gene YER053C
  The level of expressed mRNA in the presence of chemical substance/The level of expressed mRNA in the absence of chemical substance: 2.8
Yeast gene YER069W
  The level of expressed mRNA in the presence of chemical substance/The level of expressed mRNA in the absence of chemical substance: 1.0
Yeast gene YER081W
  level of expressed mRNA in the presence/in the absence of chemical substance: 0.5
Yeast gene YER096W
  The level of expressed mRNA in the presence of chemical substance/The level of expressed mRNA in the absence of chemical substance: 0.9
Yeast gene YER120W
  level of expressed mRNA in the presence/in the absence of chemical substance: 0.9
Yeast gene YER178W
  The level of expressed mRNA in the presence of chemical substance/The level of expressed mRNA in the absence of chemical substance: 1.6
Yeast gene YFL011W
  level of expressed mRNA in the presence/in the absence of chemical substance: 0.8
Yeast gene YFL014W
  The level of expressed mRNA in the presence of chemical substance/The level of expressed mRNA in the absence of chemical substance: 5.5
Yeast gene YFL030W
  The level of expressed mRNA in the presence of chemical substance/The level of expressed mRNA in the absence of chemical substance: 0.6
Yeast gene YFL031W
  The level of expressed mRNA in the presence of chemical substance/The level of expressed mRNA in the absence of chemical substance: 0.9
Yeast gene YFL056C
  The level of expressed mRNA in the presence of chemical substance/The level of expressed mRNA in the absence of chemical substance: 1.4
Yeast gene YFL057C
  The level of expressed mRNA in the presence of chemical substance/The level of expressed mRNA in the absence of chemical substance: 1.8
Yeast gene YFR047C
  The level of expressed mRNA in the presence of chemical substance/The level of expressed mRNA in the absence of chemical substance: 2.0
Yeast gene YGL012W
  level of expressed mRNA in the presence/in the absence of chemical substance: 0.9
Yeast gene YGL022W
  The level of expressed mRNA in the presence of chemical substance/The level of expressed mRNA in the absence of chemical substance: 0.7
Yeast gene YGL115W
  level of expressed mRNA in the presence/in the absence of chemical substance: 1.4
Yeast gene YGL205W
  level of expressed mRNA in the presence/in the absence of chemical substance: 0.8
Yeast gene YGL209W
  The level of expressed mRNA in the presence of chemical substance/The level of expressed mRNA in the absence of chemical substance: 1.0
Yeast gene YGL248W
  The level of expressed mRNA in the presence of chemical substance/The level of expressed mRNA in the absence of chemical substance: 1.6
Yeast gene YGR037C
  The level of expressed mRNA in the presence of chemical substance/The level of expressed mRNA in the absence of chemical substance: 1.4
Yeast gene YGR055W
  The level of expressed mRNA in the presence of chemical substance/The level of expressed mRNA in the absence of chemical substance: 0.6
Yeast gene YGR096W
  level of expressed mRNA in the presence/in the absence of chemical substance: 0.9
Yeast gene YGR191W
  level of expressed mRNA in the presence/in the absence of chemical substance: 0.7
Yeast gene YGR194C
  The level of expressed mRNA in the presence of chemical substance/The level of expressed mRNA in the absence of chemical substance: 2.2
Yeast gene YGR204W
  level of expressed mRNA in the presence/in the absence of chemical substance: 0.8
Yeast gene YGR256W
  The level of expressed mRNA in the presence of chemical substance/The level of expressed mRNA in the absence of chemical substance: 1.4
Yeast gene YGR282C
  The level of expressed mRNA in the presence of chemical substance/The level of expressed mRNA in the absence of chemical substance: 1.1
Yeast gene YGR288W
  level of expressed mRNA in the presence/in the absence of chemical substance: 1.4
Yeast gene YHR025W
  level of expressed mRNA in the presence/in the absence of chemical substance: 0.8
Yeast gene YHR111W
  The level of expressed mRNA in the presence of chemical substance/The level of expressed mRNA in the absence of chemical substance: 1.6
Yeast gene YHR123W
  level of expressed mRNA in the presence/in the absence of chemical substance: 0.9
Yeast gene YHR137W
  The level of expressed mRNA in the presence of chemical substance/The level of expressed mRNA in the absence of chemical substance: 0.4
Yeast gene YHR174W
  The level of expressed mRNA in the presence of chemical substance/The level of expressed mRNA in the absence of chemical substance: 1.6
Yeast gene YHR176W
  The level of expressed mRNA in the presence of chemical substance/The level of expressed mRNA in the absence of chemical substance: 1.4
Yeast gene YHR210C
  level of expressed mRNA in the presence/in the absence of chemical substance: 1.9
Yeast gene YIL006W
  level of expressed mRNA in the presence/in the absence of chemical substance: 0.8
Yeast gene YIL045W
  The level of expressed mRNA in the presence of chemical substance/The level of expressed mRNA in the absence of chemical substance: 1.6
Yeast gene YIL107C
  The level of expressed mRNA in the presence of chemical substance/The level of expressed mRNA in the absence of chemical substance: 1.6
Yeast gene YIL154C
  The level of expressed mRNA in the presence of chemical substance/The level of expressed mRNA in the absence of chemical substance: 1.3
Yeast gene YIL155C
  The level of expressed mRNA in the presence of chemical substance/The level of expressed mRNA in the absence of chemical substance: 2.2
Yeast gene YIL167W
  The level of expressed mRNA in the presence of chemical substance/The level of expressed mRNA in the absence of chemical substance: 1.2
Yeast gene YIR034C
  The level of expressed mRNA in the presence of chemical substance/The level of expressed mRNA in the absence of chemical substance: 0.8
Yeast gene YIR036C
  The level of expressed mRNA in the presence of chemical substance/The level of expressed mRNA in the absence of chemical substance: 1.0
Yeast gene YJL031C
  The level of expressed mRNA in the presence of chemical substance/The level of expressed mRNA in the absence of chemical substance: 2.3
Yeast gene YJL068C
  The level of expressed mRNA in the presence of chemical substance/The level of expressed mRNA in the absence of chemical substance: 1.2
Yeast gene YJL099W
  The level of expressed mRNA in the presence of chemical substance/The level of expressed mRNA in the absence of chemical substance: 1.8
Yeast gene YJL121C
  level of expressed mRNA in the presence/in the absence of chemical substance: 0.7
Yeast gene YJL167W
  level of expressed mRNA in the presence/in the absence of chemical substance: 1.5
Yeast gene YJL172W
  The level of expressed mRNA in the presence of chemical substance/The level of expressed mRNA in the absence of chemical substance: 1.0
Yeast gene YJL216C
  level of expressed mRNA in the presence/in the absence of chemical substance: 1.5
Yeast gene YJL219W
  The level of expressed mRNA in the presence of chemical substance/The level of expressed mRNA in the absence of chemical substance: 0.9
Yeast gene YJR077C
  level of expressed mRNA in the presence/in the absence of chemical substance: 0.7
Yeast gene YJR137C
  The level of expressed mRNA in the presence of chemical substance/The level of expressed mRNA in the absence of chemical substance: 0.8
Yeast gene YJR143C
  level of expressed mRNA in the presence/in the absence of chemical substance: 0.5
Yeast gene YJR148W
  The level of expressed mRNA in the presence of chemical substance/The level of expressed mRNA in the absence of chemical substance: 2.1
Yeast gene YJR155W
  The level of expressed mRNA in the presence of chemical substance/The level of expressed mRNA in the absence of chemical substance: 1.7
